From patent US20190269702A1, “COMPOSITIONS AND METHODS FOR TREATING NONINFECTIOUS UVEITIS” (CLEARSIDE BIOMEDICAL, INC., priority 2018, published 2019)

System: treatment-naïve DME eyes
Assay type: in vivo, human
Description: A study was conducted to evaluate suprachoroidal CLS-TA in combination with intravitreal aflibercept, compared to aflibercept monotherapy for DME. SCS injections target chorioretinal tissues more directly than intravitreal injections while limiting exposure to the anterior chamber, thereby offering potential safety, efficacy, and durability advantages. The study was a Phase 2, multicenter, randomized, double-masked, controlled, 24-week study in treatment-naïve DME eyes (eligibility: CST >300 μm; 20-70 ETDRS letters) randomized 1:1 to CLS-TA+aflibercept or aflibercept monotherapy. Patients in the combination arm (n=36) received CLS-TA and aflibercept at baseline & week 12 ([…]). Patients in the monotherapy arm (n=35) received aflibercept at baseline, W4, W8 and […]. […] The study is referred to as the TYBEE study in some embodiments herein.

aflibercept was tested, and the “eyes with macular edema resolved (<300 μm)” value (W4) was 21%, the “mean CST change” value (W24) was −176 μm and the “gain in BCVA letters from baseline” value (W24, per protocol arms) was “+13.5 letters”. For the same substance, the “mean PRN aflibercept treatments” value (at W16 & W20) was 0.7, the cataract observed (in vivo) was 2.9% and the “elevated IOP observed” value (in vivo) was 2.9%. For the same substance, the “treatment-related serious AEs” value (in vivo) was “No treatment-related serious AEs were observed” and the “average number of treatments” value (through week 24) was 4.7.
